Experiment: Dose–response curve of purified […]s with isoleucine
Type: biochemical
Design: key to Dose-response, AVE of Repeat 1-3 (Fig. 3 i): normalized ΔF/F0 (fluorescence change over baseline)
Conditions: for fluorescence response of GECFINDER, AVE of 3 repeats: Supplementary Fig. 3 g
Method: Fig. 3 Dose–response curves and fluorescence spectrums of […]s. a, c, e, g, i, k Dose–response curve of purified […]s with increasing concentrations of ligand in 100 mM Tris-HCl buffer (pH=7.5). The normalized ΔF/F0 value increased after ligand binding. All data shown are mean ± S.D. (n = 3 biologically independent samples). b, d, f, h, j, l The fluorescence spectra of […]s changed as the ligand concentration increased. All data shown are mean ± S.D. (n = 3 biologically independent samples). Source data are provided as a Source data file.
The study conducted dose–response curve, substrate specificity, and fluorescent spectrum analyses in 100-mM Tris buffer (pH = 7.5), while pH stability experiments were performed in 100-mM Tris buffer at three different pH values (6.5, 7.5, and 8.5) at room temperature. […] protein at a concentration of 0.75 μM, various small molecule concentrations, 1 mM ATP, and 2.5 mM MgCl2 were used in the experiments. Fluorescent signals were detected using a Microplate Reader (Synergy H4, Bio Tek) at an excitation/emission wavelength of 460 nm/510 nm or 480 nm/510 nm. The dose-response curve was determined immediately after the addition of the analyte. The total duration of the measurement was 15 min, with readings taken at one-minute intervals. The dose-response curve was plotted using the fluorescence values obtained after achieving stability in the fluorescence signal. The dose-response curves were fitted using the logistic model LOGISTIC5 available in Origin 2021, which could provide a more adequate fit to asymmetric dose-response data[62],[63]. Excitation spectra were scanned from 300 to 540 nm with a step size of 5 nm, and the emission wavelength was set to 560 nm. Emission spectra were scanned from 470 to 700 nm with a step size of 5 nm, and the excitation wavelength was set to 450 nm. The thermal stability of […] was analyzed using the UNcle multifunctional protein stability analysis system. Measurements were performed in 20 mM MOPS buffer with 2 mM DTT at a sample concentration of 1 mg/mL. Absolute fluorescence quantum yields were measured using an absolute photoluminescence quantum yield spectrometer (FS5, Edinburgh). […]
Ile (μM) Wave le ngth( nm ) Ile (μM) Wave le ngth( nm )
Supplementary Fig. 2 Dose–response curves and fl uorescen ce spectr ums of GEC FINDERs. a and c, Dose– re spons e curves of puri fi ed GECF INDE R-P he1 and 2 with increas ing concen tra tions of phenylalanine (1 nM to 100 μM). The norm alized ΔF/F 0 value increas ed aft er phenylalanine binding (4 60 nm excita tion) . b and d, The fl uore scen ce spect ra of GECF IN DER-P he1 and 2 changed as the phe nylalanine concen tra tion incre ased fro m 1 nM to 100 μM. e and g, Dose–re spon se curv es of puri fied GECF IN DER-Il e1 and 2 with increas ing concen tra tio ns of isoleucine (50 nM to 10 mM). The norm alized ΔF/F 0 value increas ed aft er isoleucine binding (4 80 nm excita tion) . f and h, The fl uore scen ce spect ra of GECF INDE R-Il e1 and 2 change d as the isoleucine concen tration increas ed fro m 0.5 μM to 10 mM. i, Dose–re spon se curv e of puri fi ed GECF INDE R-H is1 with increas ing concen tra tio ns of histid ine (5 nM to 1 mM). The Norm alized ΔF/F 0 increas ed aft er histidine binding (480 nm excita tion). j, The fl uore scen ce spect ra of GECFIN DER-H is1 changed as the histid ine concen tra tion increas ed fro m 5 nM to 1 mM. k, Diffe re nce in fl uore scen ce intensity of GECF INDE R-b enzoic aci d in the pre sence of 10 µM benzoic aci d compare d to the cont ro l (0 µM benzoic aci d). […] (n=3 biological ly independent samples). *p ≤ 0.05, ***p ≤ 0.001, ****p ≤ 0.0001, and n.s. indicat ed no signifi can t diffe re nce (S tude nt’s two-t aile d t-t est). Source data are provi ded as a Source Data file . […]

CC[C@H](C)[C@H](N)C(=O)O [Ile]
Dose-response, AVE of Repeat 1-3 (Fig. 3 i) (Ile 0.05 μM): 0 | Dose-response, AVE of Repeat 1-3 (Fig. 3 i) (Ile 0.1 μM): 0.02113 | Dose-response, AVE of Repeat 1-3 (Fig. 3 i) (Ile 0.5 μM): 0.03402 | Dose-response, AVE of Repeat 1-3 (Fig. 3 i) (Ile 5 μM): 0.05594 | Dose-response, AVE of Repeat 1-3 (Fig. 3 i) (Ile 50 μM): 0.1628 | Dose-response, AVE of Repeat 1-3 (Fig. 3 i) (Ile 100 μM): 0.2049 | Dose-response, AVE of Repeat 1-3 (Fig. 3 i) (Ile 250 μM): 0.2905 | Dose-response, AVE of Repeat 1-3 (Fig. 3 i) (Ile 500 μM): 0.3097 | Dose-response, AVE of Repeat 1-3 (Fig. 3 i) (Ile 1000 μM): 0.3698 | Dose-response, AVE of Repeat 1-3 (Fig. 3 i) (Ile 5000 μM): 0.4681 | Dose-response, AVE of Repeat 1-3 (Fig. 3 i) (Ile 7500 μM): 0.4489 | Dose-response, AVE of Repeat 1-3 (Fig. 3 i) (Ile 10000 μM): 0.4411 | fluorescence response of GECFINDER, AVE of 3 repeats (Ile 0.05 μM): -6.245e-17 | fluorescence response of GECFINDER, AVE of 3 repeats (Ile 0.1 μM): 0.01149 | fluorescence response of GECFINDER, AVE of 3 repeats (Ile 0.5 μM): 0.02425 | fluorescence response of GECFINDER, AVE of 3 repeats (Ile 5 μM): 0.01608 | fluorescence response of GECFINDER, AVE of 3 repeats (Ile 50 μM): 0.05759 | fluorescence response of GECFINDER, AVE of 3 repeats (Ile 100 μM): 0.08825 | fluorescence response of GECFINDER, AVE of 3 repeats (Ile 250 μM): 0.1283 | fluorescence response of GECFINDER, AVE of 3 repeats (Ile 500 μM): 0.1586 | fluorescence response of GECFINDER, AVE of 3 repeats (Ile 1000 μM): 0.1861 | fluorescence response of GECFINDER, AVE of 3 repeats (Ile 5000 μM): 0.2413 | fluorescence response of GECFINDER, AVE of 3 repeats (Ile 7500 μM): 0.2222 | fluorescence response of GECFINDER, AVE of 3 repeats (Ile 10000 μM): 0.2208
